Where two headings read alike, the source gives them in different places.
What was measured:
recurrent glioblastoma = test system: recurrent glioblastoma; set-up: method as in PMID 32347934; details: combination with TMZ; cited from earlier work
[1] = test system: patients with locally advanced and metastatic solid tumors; test: Dose-limiting toxicities, MTD and RP2D, dose-escalation stage (modified 3 + 3); format: in vivo, human; details: QD, with pamiparib 60 mg BID
Excerpt: AEs were coded using MedDRA v25.0 or higher.

[2] = Pharmacokinetics of TMZ in plasma (combination with pamiparib); format: in vivo; details: human, po, read-out: mean plasma concentration of TMZ 1 h after oral administration
Method: (§1) PK of pamiparib and TMZ were assessed in blood samples collected at various timepoints following administration (pamiparib: ≤30 min before dosing, 1 h ± 15 min, 2 h ± 30 min, and 4 h ± 30 min after pamiparib dose on cycle 1 Day 1 and cycle 1 Day 15; TMZ: on cycle 1 Day 1 and Day 7 at ≤30 min before dosing and 1 h ± 15 min after TMZ dose). Parameters for pamiparib included the maximum observed plasma concentration (Cmax), lowest concentration reached before the next administered dose (Ctrough), half‐life (T1/2), and time to reach peak plasma concentration (Tmax). Biomarkers were analyzed in blood samples, processed into serum, plasma, and cell fractions for the analysis of germline mutations and circulating markers. Available archival or fresh tumor tissue samples were analyzed at a central laboratory. Tumor tissue was sent either as a formalin‐fixed, paraffin‐embedded block with tumor tissue (preferred) or as approximately 10 unstained slides.

advanced malignancies = test system: advanced malignancies; set-up: method as in PMID 36136304; details: combination with TMZ, related AEs; cited from earlier work
[3] = test system: triple-negative breast cancer with germline BRCA1/2 mutations; set-up: method as in PMID 36459284; details: monotherapy, TNBC patients with germline BRCA1/2 mutations; cited from earlier work
[4] = test system: BRCA1/2-mutated ovarian cancer; set-up: method as in PMID 34844979; details: monotherapy, cited from earlier work
[5] = set-up: method as in PMID 32652442; details: cited from earlier work
[6] = test system: advanced or metastatic solid tumors; details: cited from earlier work
[7] = Pharmacokinetics of pamiparib in plasma (combination with TMZ); format: in vivo, human; details: for concentration at 2 h: read-out: geometric mean pamiparib concentration at 2 h post dose
Method: as §1

O=C(c1cc(Cc2n[nH]c(=O)c3ccccc23)ccc1F)N1CCN(C(=O)C2CC2)CC1 [olaparib]
Grade 3/4 neutropenia (recurrent glioblastoma): 13% | Grade 3/4 thrombocytopenia (recurrent glioblastoma): 25%

Cn1nnc2c(C(N)=O)ncn2c1=O [TMZ, Temozolomide]
RP2D of TMZ ([1]; 7-day pulsed): 60 mg | maximum tolerated dose of TMZ ([1]; 7-day pulsed): 60 mg | maximum tolerated dose of TMZ ([1]; continuous): 20 mg | concentration at 1 h ([2]; cycle 1 Day 1, 20-mg dose): 338 ng/mL | concentration at 1 h ([2]; cycle 1 Day 1, 120-mg dose): 1510 ng/mL

Cn1ncnc1[C@H]1c2n[nH]c(=O)c3cc(F)cc(c23)N[C@@H]1c1ccc(F)cc1 [talazoparib]
Grade 3/4 neutropenia (advanced malignancies): 28% | Grade 3/4 thrombocytopenia (advanced malignancies): 33%

C[C@]12CCCN1CC1=NNC(=O)c3cc(F)cc4[nH]c2c1c34 [pamiparib, Pamiparib]
ORR [3]: 38.2% | ORR ([4]; BRCA1/2-mutated platinum-resistant ovarian cancer): 31.6% | ORR ([4]; BRCA1/2-mutated platinum-sensitive ovarian cancer): 64.6% | brain penetration ([5]; mice and rats): strong brain penetration | drug exposure in the brain ([5]; mice): higher drug exposure in the brain compared with other PARP inhibitors | RP2D of pamiparib ([6]; administered orally, BID): 60 mg | ORR ([6]; monotherapy, advanced or metastatic solid tumors): 27.3% | geometric mean AUC0-4 at steady state relative to single-dose pamiparib administration ([7]; combination with TMZ): approximately twice | concentration at 2 h ([7]; human, plasma, oral, cycle 1 Day 1, combination with TMZ): 1580 ng/mL | concentration at 2 h ([7]; human, plasma, oral, cycle 1 Day 15, combination with TMZ): 3480 ng/mL | AUC(0-t) ([7]; human, plasma, oral, steady state with combination TMZ therapy (cycle 1 Day 15), pamiparib 60 mg BID, read-out: pamiparib geometric mean AUC0-4): 11100 ng·h/mL | Cmax ([7]; oral, pamiparib 60 mg BID with TMZ, human plasma, n/N 20/20, read-out: Cmax – mean (SD)): 2010 ng/mL | Tmax ([7]; oral, pamiparib 60 mg BID with TMZ, human plasma, n/N 20/20, read-out: Tmax – mean (SD)): 4 h | AUC0-4, SS – geometric mean ([7]; pamiparib 60 mg BID with TMZ, steady state, cycle 1, day 15, human plasma, n/N 8/20): 11,119 h*ng/mL | Ctrough, SS – mean (SD) ([7]; pamiparib 60 mg BID with TMZ, steady state, cycle 1, day 15, human plasma, n/N 14/20): 2,934 (2346) ng/mL
